This experiment concerns MRSA (strain LAC). Description: Time-dependent killing of MRSA (strain LAC). The experiment is classed as cell-based, Staphylococcus aureus. The settings on record: liquid culture, single inoculation, FIG. 3. From the text:
FIG. 3 is a plot showing the time-dependent killing of MRSA (strain LAC) by vancomycin and an example vancomycin-2-3-pyrrolidinedione conjugate (Compound 4).
With these initial results in hand, the time-dependent killing of bacterial strains by the vancomycin-2-3-pyrrolidinedione conjugates was investigated. FIG. 2 is a plot showing the time-dependent killing of S. aureus (strain HG003) by vancomycin and an example vancomycin-2-3-pyrrolidinedione conjugate (Compound 4, also referred to as AV-273). FIG. 3 is a plot showing the time-dependent killing of MRSA (strain LAC) by vancomycin and an example vancomycin-2-3-pyrrolidinedione conjugate (Compound 4).

1 molecule from patent US20250312258A1, “2,3-PYRROLIDINEDIONE CONJUGATES AND METHODS OF USING THEREOF” (North Carolina State University, priority 2022, published 2025) can be followed below.

Take `CCC1C(c2ccc(C(F)(F)F)cc2)=C(O)C(=O)N1C1CCC(NC)CC1` (stereo not shown) [Compound 4]: the time-dependent killing profile entry is on record as “roughly matched vancomycin at the same concentration”.
